Consider 33 molecules from patent US20230364057A1, “BACTERIAL DNA GYRASE INHIBITORS AND METHODS OF USE THEREOF” (THE FLORIDA INTERNATIONAL UNIVERSITY BOARD OF TRUSTEES, priority 2022, published 2023).

Test [1] has as its target T1, E. coli DNA gyrase (Escherichia coli (strain K12), UniProt P0AES4+P0AES6). The test is described as follows: Agarose gel-based DNA gyrase inhibition assay. In kind it is biochemical. The method, then:
100 ng of DNA gyrase was used to supercoil the rx pAB1 in the presence of different concentrations of a gyrase inhibitor. […] Samples were analyzed by electrophoresis in 1% w/v agarose gels followed by ethidium bromide staining and photographed under UV light.

In test [2] the target is T1, E. coli DNA gyrase. The test is described as follows: biochemical. The class given is biochemical. The conditions noted are these: for pIC50 / IC50: bin of Table 2; for IC50: IC50 (15-[…] µM).

pIC50: −log10 of the molar value.

For `CCc1ccc(S(=O)(=O)/N=C2/C=C(Nc3cccc(C(=O)O)c3)C(=O)c3ccccc32)cc1` [Compound 17], at E. coli DNA gyrase [1] (200 µM of compounds), the “inhibition of E. coli DNA gyrase activities” value (“inhibition” below) is listed as “completely inhibited”. The molecule further showed a pIC50 at E. coli DNA gyrase [2] (IC50 (50-200 µM)) of 3.70 to 4.30.

For the molecule `Cc1n[nH]c(SC(Cc2ccc(-c3cccc(Cl)c3)o2)C(=O)O)n1` (centres unmarked) [Compound 18], the “inhibition” value against E. coli DNA gyrase [1] (50 µM of compounds) and against E. coli DNA gyrase [1] (200 µM of compounds) was “completely inhibited” each time. For the same molecule, the pIC50 against E. coli DNA gyrase [2] (IC50 ([…]-50 µM)) was 4.30 to 4.60.

Turning to `CCc1ccc(OCC(=O)/N=c2/[nH]nc(-c3ccco3)s2)cc1` [Compound 22], the “inhibition” value against E. coli DNA gyrase [1] (200 µM of compounds) was “completely inhibited”. At E. coli DNA gyrase [2] (IC50 (50-200 µM)), the pIC50 was 3.70 to 4.30.

As to `CC(C)(C)N1C(=O)N=C(O)/C(=C\c2ccc3c(c2)CCN3CCCCl)C1=O` [Compound 23], the “inhibition” value on E. coli DNA gyrase [1] (50 µM of compounds) and against E. coli DNA gyrase [1] (200 µM of compounds) was “completely inhibited” each time. Further, the pIC50 on E. coli DNA gyrase [2] (IC50 ([…]-50 µM)) was 4.30 to 4.60.

On to `Cc1ccc(NC2=NC(=O)/C(=C/C=C/c3ccco3)S2)cc1` [Compound 24], for which the “inhibition” value on E. coli DNA gyrase [1] (50 µM of compounds) and against E. coli DNA gyrase [1] (200 µM of compounds) was “completely inhibited” throughout. This molecule showed a pIC50 against E. coli DNA gyrase [2] (IC50 ([…]-50 µM)) of 4.30 to 4.60.

Turning to `COc1ccc(-c2cc(-c3ccco3)nc(O)c2C#N)cc1OC` [Compound 28], at E. coli DNA gyrase [1] (200 µM of compounds), the “inhibition” value is recorded as “almost completely inhibited”. At E. coli DNA gyrase [2] (IC50 (50-200 µM)), the pIC50 is 3.70 to 4.30.

Consider `Cc1cc(/C=C2\SC(=S)N=C2O)c(C)n1-c1ccccc1` [Compound 29], for which the “inhibition” value against E. coli DNA gyrase [1] (50 µM of compounds) and against E. coli DNA gyrase [1] (200 µM of compounds) was “completely inhibited” throughout. Besides, the negative-log IC50 (pIC50) against E. coli DNA gyrase [2] (IC50 ([…]-50 µM)) is 4.30 to 4.60.

As for `CC(=O)NC1=NC(=O)/C(=C/c2cc(C)n(-c3cccc(C(=O)O)c3)c2C)S1` [Compound 31], the “inhibition” value against E. coli DNA gyrase [1] (200 µM of compounds) is on record as “completely inhibited”. At E. coli DNA gyrase [2] (IC50 (50-200 µM)), this molecule showed a negative-log IC50 (pIC50) of 3.70 to 4.30.

For the molecule `Cc1ccc(/C=C2\SC(N3CCN(C(c4ccccc4)c4ccccc4)CC3)=NC2=O)o1` [Compound 33], the “inhibition” value against E. coli DNA gyrase [1] (200 µM of compounds) is given as “completely inhibited”. The molecule also gave a pIC50 against E. coli DNA gyrase [2] (IC50 (50-200 µM)) of 3.70 to 4.30.

With `O=C1/C(=C\c2ccc(O)cc2)SC(=S)N1/N=C/c1ccc(O)cc1` [Compound 35], the “inhibition” value against E. coli DNA gyrase [1] (50 µM of compounds) and against E. coli DNA gyrase [1] (200 µM of compounds) was “completely inhibited” throughout. In addition, the negative logarithm of the IC50 (pIC50) against E. coli DNA gyrase [2] (IC50 ([…]-50 µM)) is 4.30 to 4.60.

As to `CN(C)c1ccc(/C=C2/C(=O)N(CCc3ccc(F)cc3)C(=O)N=C2O)cc1` [Compound 38], the “inhibition” value against E. coli DNA gyrase [1] (200 µM of compounds) was “completely inhibited”. The molecule further gave a pIC50 against E. coli DNA gyrase [2] (IC50 (50-200 µM)) of 3.70 to 4.30.

Turning to `O=C(O)c1cc(N2N=C(C(F)(F)F)/C(=C/C=C/c3ccco3)C2=O)ccc1Cl` [Compound 49], the figures for the “inhibition” value at E. coli DNA gyrase [1] (50 µM of compounds) and at E. coli DNA gyrase [1] (200 µM of compounds) were “almost completely inhibited” and “completely inhibited”, respectively. At E. coli DNA gyrase [2] (IC50 ([…]-50 µM)), the pIC50 is 4.30 to 4.60.

For the molecule `O=C1NC(=S)S/C1=C/c1ccc(OC(=O)c2ccco2)cc1` [Compound 51], on E. coli DNA gyrase [1] (200 µM of compounds), the “inhibition” value is on record as “almost completely inhibited”. Also, the pIC50 at E. coli DNA gyrase [2] (IC50 (50-200 µM)) was 3.70 to 4.30.

For `CCCn1c(/C=C/c2ccco2)nc2ccccc21` [Compound 53], the “inhibition” value was “almost completely inhibited” on E. coli DNA gyrase [1] (50 µM of compounds) and “completely inhibited” against E. coli DNA gyrase [1] (200 µM of compounds). In addition, the pIC50 against E. coli DNA gyrase [2] (IC50 (50-200 µM)) was 3.70 to 4.30.

`O=C(NCc1cccnc1)c1ccc(-c2cccc(Cl)c2Cl)o1` [Compound 56]: the “inhibition” value against E. coli DNA gyrase [1] (200 µM of compounds) is reported as “almost completely inhibited”. In addition, the pIC50 against E. coli DNA gyrase [2] (IC50 (50-200 µM)) is 3.70 to 4.30.

As for `CCOC(=O)C1=C(Nc2ccc(C)cc2)S/C(=C\c2ccc(-c3ccccc3C(=O)O)o2)C1=O` [Compound 60], at E. coli DNA gyrase [1] (200 µM of compounds), the “inhibition” value is recorded as “completely inhibited”. The same molecule had a negative-log IC50 (pIC50) against E. coli DNA gyrase [2] (IC50 (50-200 µM)) of 3.70 to 4.30.

For `O=C1/C(=C/c2ccc(O)cc2)SC(=S)N1CC1CCCO1` (centres unmarked) [Compound 61], the “inhibition” value against E. coli DNA gyrase [1] (200 µM of compounds) is recorded as “almost completely inhibited”. On E. coli DNA gyrase [2] (IC50 (50-200 µM)), this molecule had a negative-log IC50 (pIC50) of 3.70 to 4.30.

`O=C(O)CC(C(=O)O)N1C(=O)/C(=C/c2ccc(-c3nc4ccccc4s3)o2)SC1=S` (centres unmarked) [Compound 62]: the “inhibition” value against E. coli DNA gyrase [1] (50 µM of compounds) was “almost completely inhibited”; against E. coli DNA gyrase [1] (200 µM of compounds), “completely inhibited”. Also, the negative-log IC50 (pIC50) against E. coli DNA gyrase [2] (IC50 (50-200 µM)) was 3.70 to 4.30.

As for `Cc1cc(/C=C(/C#N)c2nc3ccccc3[nH]2)c(C)n1-c1cc(C(=O)O)cc(C(=O)O)c1` [Compound 63], on E. coli DNA gyrase [1] (200 µM of compounds), the “inhibition” value was “completely inhibited”. This molecule had a negative-log IC50 (pIC50) against E. coli DNA gyrase [2] (IC50 (50-200 µM)) of 3.70 to 4.30.

For `Cc1cc(C(=O)Nc2ccccc2C(=O)O)ccc1NC(=O)COc1ccccc1Cl` [Compound 65], on E. coli DNA gyrase [1] (200 µM of compounds), the “inhibition” value was “almost completely inhibited”. Further, the pIC50 against E. coli DNA gyrase [2] (IC50 (50-200 µM)) is 3.70 to 4.30.

For the molecule `CCOC(=O)C1=C(C)NC(=O)NC1c1ccc(N2CCC(c3ccccc3)=N2)cc1` (centres unmarked) [Compound 68], the “inhibition” value at E. coli DNA gyrase [1] (200 µM of compounds) is given as “almost completely inhibited”. The pIC50 against E. coli DNA gyrase [2] (IC50 (50-200 µM)) is 3.70 to 4.30.

For `Cc1cc(-c2csc(N)n2)c(C)n1-c1ccccc1.Cl` [Compound 70], at E. coli DNA gyrase [1] (200 µM of compounds), the “inhibition” value is on record as “completely inhibited”. Further, the pIC50 against E. coli DNA gyrase [2] (IC50 (50-200 µM)) is 3.70 to 4.30.

As for `O=C(O)C1Nc2ccccc2C2C=CCC12` (centres unmarked) [Compound 83], the entries for the “inhibition” value on E. coli DNA gyrase [1] (50 µM of compounds), at E. coli DNA gyrase [1] (200 µM of compounds) and on E. coli DNA gyrase [2] were “almost completely inhibited”, “completely inhibited” and “inhibit E. coli DNA gyrase strongly”, respectively. The molecule also showed a negative logarithm of the IC50 (pIC50) on E. coli DNA gyrase [2] (IC50 (50-200 µM)) of 3.70 to 4.30.

As to `c1ccc(Nc2nc(N3CCCC3)c3ccccc3n2)cc1` [Compound 102], the “inhibition” value against E. coli DNA gyrase [1] (50 µM of compounds) is reported as “completely inhibited”. The negative-log IC50 (pIC50) at E. coli DNA gyrase [2] (IC50 ([…]-50 µM)) was 4.30 to 4.60.

With `Cc1cc2c3c(c1)C1CC=CC1C(C(=O)O)N3CC1CC=CC21` (centres unmarked) [Compound 106], the entries for the “inhibition” value against E. coli DNA gyrase [1] (50 µM of compounds) and against E. coli DNA gyrase [2] were “potently inhibited” and “inhibit E. coli DNA gyrase strongly”, respectively. This molecule showed a pIC50 at E. coli DNA gyrase [2] (IC50 (50-200 µM)) of 3.70 to 4.30.

Take `Cc1onc(-c2ccccc2)c1C(=O)Nc1sccc1C#N` [Compound 112]: at E. coli DNA gyrase [1] (50 µM of compounds), the “inhibition” value is listed as “potently inhibited”. Also, on E. coli DNA gyrase [2] (IC50 (50-200 µM)), the pIC50 was 3.70 to 4.30.

As to `C(=Cc1ccco1)c1nc2ccccc2[nH]1` [Compound 129], the “inhibition” value against E. coli DNA gyrase [1] (50 µM of compounds) is reported as “potently inhibited”. The pIC50 against E. coli DNA gyrase [2] (IC50 (50-200 µM)) was 3.70 to 4.30.

As for `CCOc1ccc(S(=O)(=O)Nc2nc3ccccc3nc2Nc2ccc(N3CCOCC3)cc2)cc1` [Compound 130], at E. coli DNA gyrase [1] (50 µM of compounds), the “inhibition” value is recorded as “potently inhibited”. The same molecule had a pIC50 against E. coli DNA gyrase [2] (IC50 (50-200 µM)) of 3.70 to 4.30.

For the molecule `N#CC(C#N)=C1C=CC=CN1C(=Cc1ccccc1)C(=O)c1cccs1` [Compound 131], the “inhibition” value on E. coli DNA gyrase [1] (50 µM of compounds) was “potently inhibited”. In addition, the pIC50 against E. coli DNA gyrase [2] (IC50 (50-200 µM)) is 3.70 to 4.30.

For the molecule `CCOC(=O)[C@@H]1Nc2ccc(C(=O)O)cc2[C@@H]2C=CC[C@H]12` [Compound 141], the results for the “inhibition” value on E. coli DNA gyrase [1] (50 µM of compounds) and against E. coli DNA gyrase [2] were “potently inhibited” and “inhibit E. coli DNA gyrase strongly”, respectively.

Take `Cc1cccc(/N=C2/NC(=O)/C(=C\C=C\c3ccco3)S2)c1C` [Compound 149]: the “inhibition” value against E. coli DNA gyrase [1] (50 µM of compounds) is “completely inhibited”. On E. coli DNA gyrase [2], this molecule gave an IC50 of 15 to 25 µM.

For the molecule `O=C1N/C(=N\c2ccc3ccccc3c2)S/C1=C/c1ccco1` [Compound 163], the “inhibition” value against E. coli DNA gyrase [1] (50 µM of compounds) is listed as “completely inhibited”. Besides, the IC50 against E. coli DNA gyrase [2] was 15 to 25 µM.

As for `N#Cc1sc2nc(-c3ccccc3)cc(-c3ccco3)c2c1N` [Compound 167], the “inhibition” value at E. coli DNA gyrase [1] (50 µM of compounds) is on record as “potently inhibited”. The pIC50 at E. coli DNA gyrase [2] (IC50 (50-200 µM)) is 3.70 to 4.30.

Broadly, the pIC50 is the IC50 on a negative log10 scale, so that one unit is a factor of ten. Higher therefore signals a small IC50. As a reminder, the IC50 is the concentration that gives 50% inhibition. Read a high IC50 as lower potency.
